These results are taken from article PMC12735688, “Discovery and Activity Evaluation of Novel Dibenzoxazepinone Derivatives as Glycogen Phosphorylase Inhibitors” (Molecules, 2025).

Broadly, the IC50 is the concentration at which inhibition is half-maximal.

Structures can show the parent of a compound that is named as a salt. Where two headings read alike, the source gives them in different places.

Assay [1] has as its target T1, rabbit muscle glycogen phosphorylase a (RMGPa) (Oryctolagus cuniculus, UniProt P00489).
T1 construct: purchased
T1 sequence (P00489 2-843 limits assumed): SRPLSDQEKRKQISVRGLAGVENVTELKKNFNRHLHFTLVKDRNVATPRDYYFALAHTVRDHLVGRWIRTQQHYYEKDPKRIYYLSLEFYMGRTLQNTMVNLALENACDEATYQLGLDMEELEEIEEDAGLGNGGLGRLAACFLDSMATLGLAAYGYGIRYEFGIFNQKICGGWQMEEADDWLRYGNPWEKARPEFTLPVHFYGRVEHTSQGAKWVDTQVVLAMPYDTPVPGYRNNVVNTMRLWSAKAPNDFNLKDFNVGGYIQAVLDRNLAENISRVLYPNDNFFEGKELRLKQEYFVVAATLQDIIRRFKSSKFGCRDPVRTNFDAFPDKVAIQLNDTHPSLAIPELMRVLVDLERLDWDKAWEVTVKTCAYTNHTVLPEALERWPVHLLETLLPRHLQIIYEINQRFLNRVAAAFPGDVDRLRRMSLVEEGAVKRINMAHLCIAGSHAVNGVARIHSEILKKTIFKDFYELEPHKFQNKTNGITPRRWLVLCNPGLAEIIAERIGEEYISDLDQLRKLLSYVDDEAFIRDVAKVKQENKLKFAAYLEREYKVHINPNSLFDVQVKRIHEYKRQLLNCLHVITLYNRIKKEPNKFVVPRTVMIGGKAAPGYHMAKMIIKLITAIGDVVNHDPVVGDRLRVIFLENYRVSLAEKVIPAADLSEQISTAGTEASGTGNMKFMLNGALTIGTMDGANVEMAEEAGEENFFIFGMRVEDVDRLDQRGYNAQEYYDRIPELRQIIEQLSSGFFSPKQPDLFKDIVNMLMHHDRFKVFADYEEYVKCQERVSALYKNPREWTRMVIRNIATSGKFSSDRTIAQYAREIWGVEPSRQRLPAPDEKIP
Briefly: RMGPa enzyme inhibition assay (phosphate release, malachite green). Type of assay: biochemical. The following applies: mean ± S.D. of three determinations; NI means no inhibition. The procedure:
The synthesized compounds were evaluated in an enzyme inhibition assay against rabbit muscle glycogen phosphorylase a (RMGPa), a commercially available enzyme that shares considerable sequence similarity with human liver GPa. As described previously, the activity of RMGPa was measured by detecting the release of phosphate from glucose-1-phosphate in the direction of glycogen synthesis. PSN-357, a GP inhibitor in clinical Phase II, was used as positive control.
The inhibitory activity of the test compounds against RMGPa was evaluated using a microplate reader (Bio-Rad Laboratories, Berkeley, CA, USA), based on the release of inorganic phosphate during glycogenolysis. First, the test compounds were dissolved in DMSO and diluted to various concentrations for IC50 determination. A 100 μL aliquot of buffer, containing 50 mM Hepes (pH = 7.2), 100 mM potassium chloride (KCl), 2.5 mM magnesium chloride (MgCl2), 0.5 mM glucose-1-phosphate, 1 mg/mL glycogen, and the test compound solution, was added to a 96-well Costar microplate (Corning Inc., New York, NY, USA). The reaction mixture was incubated at 22 °C for 25 min, after which 150 μL of solution containing 10 mg/mL ammonium molybdate and 0.38 mg/mL malachite green was added to stop the reaction. The absorbance of phosphate was measured at 620 nm. IC50 values were determined by fitting the inhibition data to a dose–response curve using a logistic derivative equation.

The subject of assay [2] is hyperglycemic mice induced by adrenaline. Briefly: Acute hypoglycemic experiment in adrenaline-induced hyperglycemic mice. The class given is in vivo, C57BL/6J mice. The conditions noted are these: 400 mg/kg single oral dose, about 2 h after administration; model group 8.91 ± 0.69; p < 0.01; mean ± SEM. Here is the method: First, its ability was investigated by oral administration with one dose of 0.5% CMC-NA (model group) or compound Id at different concentrations (12.5, 25 and 50 mg/kg) for treatment. Metformin (400 mg/kg) was selected as a positive control.
The animal experiments were conducted following the method described in reference. Male C57BL/6J mice (6–8 weeks old, 18–20 g) were obtained from Beijing Huafukang Biotechnology Co., Ltd. (Beijing, China), maintained under standard conditions (food/water ad libitum), and acclimatized for 1 week. After acclimatization, baseline blood glucose was measured via tail vein sampling. Subsequently, mice were randomized into 6 groups (10/group) by blood glucose/body weight, with no significant differences in initial blood glucose (mean ± SEM). Post-grouping, daily oral 0.5% CMC-Na (as vehicle) was given. On the night before the experimental day, mice were fasted overnight with free access to water. On the experimental day, mice were orally administered Compound Id (50, 25, 12.5 mg/kg), metformin (400 mg/kg, as positive control), or 0.5% CMC-Na, followed by subcutaneous 0.2 mg/kg adrenaline to induce hyperglycemia. Finally, blood glucose was measured/recorded at 0, 30, 60, 90, and 120 min post-administration via JPS-5 meter.

The target in assay [3] is T1, rabbit muscle glycogen phosphorylase a (RMGPa). More on the design: method as in PMID 33906369. The conditions noted are these: previously reported parent compound; read-out: IC50 (RMGPa inhibition) of parent compound; cited from earlier work.

Take `Cc1ccc2[nH]c(C(=O)Nc3ccc4c(c3)NC(=O)c3ccc(C(F)(F)F)cc3O4)cc2c1` [IIf]: half-maximal inhibition in assay [1] (IC50) was put at 338 ± 55 nM. Same read-out and setting: the same measure for `CCCc1cc(OC)c2c(c1)C(=O)Nc1cc(NC(=O)c3cc4cc(Cl)ccc4[nH]3)ccc1O2` [Ie, 5-chloro-N-(3-methoxy-11-oxo-5-propyl-10,11-dihydrodibenzo[b,f][1,4]oxazepin-8-yl)-1H-indole-2-carboxamide]: 2180 ± 156 nM; for `COc1ccc2[nH]c(C(=O)Nc3ccc4c(c3)NC(=O)c3ccc(C(F)(F)F)cc3O4)cc2c1` [IIc]: 840 ± 50 nM. In assay [1], `O=C(Nc1ccc2c(c1)NC(=O)c1ccc(C(F)(F)F)cc1O2)c1cc2cc(O)ccc2[nH]1` [IIb] had an IC50 of 723 ± 82 nM. As for `COc1cnc2[nH]c(C(=O)Nc3ccc4c(c3)NC(=O)c3ccc(C(F)(F)F)cc3O4)cc2c1` [IId], the IC50 in assay [1] was 1790 ± 104 nM. `CN(C)C(=N)N=C(N)N` [Metformin, Metformin hydrochloride, reference compound] yielded a blood glucose in assay [2] of 6.57 ± 0.71 mmol/L. Take `O=C1CCOc2ccc(NC(=O)c3cc4cc(Cl)ccc4[nH]3)cc2N1` [Compound 1]: the IC50 in assay [3] was 250 ± 50 nM.
